Results reported in patent US20150005320A9, “COMPOUNDS FOR INFLAMMATION AND IMMUNE-RELATED USES” (Synta Pharmaceuticals Corp., priority 2003, published 2015).

Columns and labels:
[1] = system: IL-2 production; assay: IL-2 production upon PMA/ionomycin stimulation in whole blood from dosed cynomolgus monkeys; format: in vivo; details: cynomolgus monkey, IV 5 mg/kg, 4 hours after dosing, FIG. 3
Experimental: (§1) 3 male non-naïve cynomolgus monkeys were fasted overnight prior to and for four (4) hours following each dose. Each monkey was given a single intravenous dose of the appropriate test compound followed by a 1 mL rinse of saline to flush the catheter. The dose was infused over one hour using calibrated syringe pumps. Following a one week washout, the same three monkeys were given a single oral gavage dose of the appropriate test compound dose formulation followed by a 10 mL flush with tap water. Following a second one week washout, the same three monkeys received a second oral dose of the appropriate test compound dose formulation followed by a 10 mL flush with tap water. Following a third one week washout, the same three monkeys received a third oral dose of the appropriate test compound dose formulation followed by a 10 mL flush with tap water. Prior to and at 1, 2, and 4 hours following each dose (measured from the start of dosing for IV doses), blood samples (3 mL/sample for Group 1 and 2 mL/sample for Groups 2 and 3) were drawn into tubes containing sodium heparin and stored at room temperature, and the concentration of the test compounds in each sample was measured. CsA was included as a positive control.

[2] = system: CRAC ion channel; assay: Patch clamp inhibition of ICRAC current in primary T cells; format: cell-based; details: primary human T cells, FIG. 1
Experimental: Primary T cells were obtained from human whole blood samples by adding 100 μL of RosetteSep® human T cell enrichment cocktail to 2 mL of whole blood. The mixture was incubated for 20 minutes at room temperature, then diluted with an equal volume of PBS containing 2% FBS. The mixture was layered on top of RosetteSep® DM-L density medium and then centrifuged for 20 minutes at 1200 g at room temperature.
The enriched T cells were recovered from the plasma/density medium interface, then washed with PBS containing 2% FBS twice, and used in patch clamp experiments following the procedure described for RBL cells.

[3] = biological target: CRAC ion channel (Rattus norvegicus, UniProt Q5M848); assay: Patch clamp inhibition of ICRAC current in RBL cells; format: cell-based; details: whole-cell patch clamp, read-out: IC50 (concentration which inhibits 50% of the ICRAC current)
Sequence of CRAC ion channel (Rattus norvegicus, UniProt Q5M848) (Q5M848 whole entry, the tested form may be a part): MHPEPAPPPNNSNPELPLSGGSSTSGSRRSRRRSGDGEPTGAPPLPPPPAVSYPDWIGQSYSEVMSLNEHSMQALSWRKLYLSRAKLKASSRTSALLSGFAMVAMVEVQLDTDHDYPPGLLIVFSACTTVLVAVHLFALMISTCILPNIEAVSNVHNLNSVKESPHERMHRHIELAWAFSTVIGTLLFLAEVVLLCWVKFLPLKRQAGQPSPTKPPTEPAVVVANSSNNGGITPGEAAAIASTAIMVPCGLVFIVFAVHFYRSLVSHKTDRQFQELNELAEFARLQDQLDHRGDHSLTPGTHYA
Sequence of CRAC ion channel (Rattus norvegicus, UniProt Q5M848) (P84903 23-685, further chain): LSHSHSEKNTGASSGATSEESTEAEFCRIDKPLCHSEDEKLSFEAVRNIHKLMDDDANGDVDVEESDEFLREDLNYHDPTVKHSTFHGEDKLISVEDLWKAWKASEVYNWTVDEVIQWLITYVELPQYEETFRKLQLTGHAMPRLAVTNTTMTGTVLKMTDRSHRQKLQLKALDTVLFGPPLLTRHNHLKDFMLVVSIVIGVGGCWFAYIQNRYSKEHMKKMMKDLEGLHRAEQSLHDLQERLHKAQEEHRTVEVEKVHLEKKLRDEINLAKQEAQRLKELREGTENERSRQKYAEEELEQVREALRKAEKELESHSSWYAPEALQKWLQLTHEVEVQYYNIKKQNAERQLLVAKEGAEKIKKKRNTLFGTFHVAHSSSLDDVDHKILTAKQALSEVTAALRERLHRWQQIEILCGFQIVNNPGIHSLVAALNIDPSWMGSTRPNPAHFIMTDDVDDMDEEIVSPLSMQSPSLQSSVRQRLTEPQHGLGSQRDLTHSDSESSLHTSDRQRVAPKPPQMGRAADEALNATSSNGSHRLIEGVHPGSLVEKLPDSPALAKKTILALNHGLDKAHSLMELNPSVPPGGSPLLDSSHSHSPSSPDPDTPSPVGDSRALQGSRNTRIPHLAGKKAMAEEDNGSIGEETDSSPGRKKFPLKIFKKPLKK
Experimental: In general, a whole cell patch clamp method was used to examine the effects of a compound of the invention on a channel that mediates Icrac. In such experiments, a baseline measurement was established for a patched cell. Then a compound to be tested was perfused (or puffed) to cells in the external solution and the effect of the compound on Icrac was measured. A compound that modulates Icrac (e.g., inhibits) is a compound that is useful in the invention for modulating CRAC ion channel activity.
Rat basophilic leukemia cells (RBL-2H3) were grown in DMEM media supplemented with 10% fetal bovine serum in an atmosphere of 95% air/5% CO2. Cells were seeded on glass coverslips 1-3 days before use.
Membrane currents of individual cells were recorded using the whole-cell configuration of the patch clamp technique with an EPC10 (HEKA Electronik, Lambrecht, Germany). Electrodes (2-5 MO in resistance) were fashioned from borosilicate glass capillary tubes (Sutter Instruments, Novato, Ca). The recordings were done at room temperature.
Cs-Glutamate 120 mM; CsCl 20 mM; CsBAPTA 10 mM; CsHEPES 10 mM; NaCl 8 mM; MgCl2 1 mM; IP3 0.02 mM; pH=7.4 adjusted with CsOH. (Shielded from light and kept on ice before experiment)
NaCl 138 mM; NaHEPES, 10 mM; CsCl 10 mM; CaCl2 10 mM; Glucose 5.5 mM; KC1-5.4 mM; KH2PO4 0.4 mM; Na2HPO4H2 0.3 mM at pH=7.4 adjusted with NaOH.
Each compound was diluted from a 10 mM stock in series using DMSO (10 μM, 3.2 μM, […], 316 nM, 100 nM, 32 nM). The final DMSO concentration was always kept at 0.1%.
ICRAC currents were monitored every 2 seconds using a 50 msec protocol, where the voltage was ramped from −100 mV to +100 mV. The membrane potential was held at 0 mV between the test ramps. In a typical experiment the peak inward currents would develop within 50-100 seconds. […]
The ICRAC current level was determined by measuring the inward current amplitude at −80 mV of the voltage ramp in an off-line analysis using MATLAB. The ICRAC current inhibition for each concentration was calculated using peak amplitude in the beginning of the experiment from the same cell. […]

[4] = system: TNF-α production; assay: TNF-α production upon PMA/ionomycin stimulation in whole blood from dosed cynomolgus monkeys; format: in vivo; details: cynomolgus monkey, IV 5 mg/kg, 4 hours after dosing, FIG. 4
Experimental: as §1

[5] = system: IL-2 production; assay: Inhibition of IL-2 production in PHA-activated Jurkat cells (ELISA); format: cell-based; details: Homo sapiens, 20 h
Experimental: Jurkat cells were placed in a 96 well plate (0.5 million cells per well in 1% FBS medium) then test compounds of this invention were added at different concentrations. After 10 minutes, the cells were activated with PHA (final concentration 2.5 μg/mL) and incubated for 20 hours at 37° C. under CO2. The final volume was 200 μL. Following incubation, the cells were centrifuged and the supernatants collected and stored at −70° C. prior to assaying for IL-2 production. A commercial ELISA kit (IL-2 Eli-pair, Diaclone Research, Besancon, France) was used to detect production of IL-2, from which dose response curves were obtained. The IC50 value was calculated as the concentration at which 50% of maximum IL-2 production after stimulation was inhibited versus a non-stimulation control.

Structure (SMILES)	IC50 [3]	IC50 ([5]; bins in nM)	further results
COc1ccc(OC)c(-c2ccc(NC(=O)c3cccc(F)c3F)cc2)c1 [Compound 31, N-(2′,5′-Dimethoxy-biphenyl-4-yl)-2,3-difluoro-benzamide]	100 nM		IL-2 production after IV infusion [1]: significantly inhibit; inhibition of ICRAC current in primary T cells compared with RBL cells [2]: inhibits ICRAC current equally well in primary T cells as in RBL cells; TNF-α production after IV infusion [4]: significantly inhibit
Cc1nocc1C(=O)Nc1ccc(-c2cc(C(F)(F)F)ccc2C(F)(F)F)cc1 [Compound 48, 3-methylisoxazole-4-carboxylic acid (2′,5′-bis-trifluoromethyl-biphenyl-4-yl)-amide]		100 to 500 nM	
COc1ccc(C)cc1-c1ccc(NC(=O)c2cccc(F)c2F)cc1 [Compound 46, N-(2′-methoxy-5′-methyl-biphenyl-4-yl)-2,3-difluorobenzamide]		< 100 nM	
Cc1nnsc1C(=O)Nc1ccc(-c2cc(C(F)(F)F)ccc2Cl)cc1 [Compound 27, 4-Methyl-[1,2,3]thiadiazole-5-carboxylic acid (2′-chloro-5′-trifluoromethyl-biphenyl-4-yl)-amide]	400 nM		
COc1ccc(Cl)cc1-c1ccc(NC(=O)c2cc(F)c(F)cc2F)cc1 [Compound 84, N-(2′-methoxy-5′-chloro-biphenyl-4-yl)-2,4,5-trifluorobenzamide]	300 nM		
O=C(Nc1ccc(-c2cc(C(F)(F)F)ccc2C(F)(F)F)cc1)c1ccnc2ccccc12 [Compound 57, quinoline-4-carboxylic acid (2′,5′-bis-trifluoromethyl-biphenyl-4-yl)-amide]			IC50 ([5]; bin printed with mixed units nM and μM): 500 to 1000 nM
